Source: BindingDB's records for patent US20250223301 (Inventisbio Co., 2025)

Legend:
[1] = molecular target: Diacylglycerol kinase alpha (Homo sapiens, UniProt P23743); experiment: DGK ADP-Glo Kinase Assay
Protocol: (§1) Luminescence was recorded using an Tecan SPARK microplate reader.

[2] = molecular target: Diacylglycerol kinase zeta (Homo sapiens, UniProt Q13574); experiment: DGK ADP-Glo Kinase Assay
Protocol: as §1

Chain of Diacylglycerol kinase zeta (Q13574 as listed by the source): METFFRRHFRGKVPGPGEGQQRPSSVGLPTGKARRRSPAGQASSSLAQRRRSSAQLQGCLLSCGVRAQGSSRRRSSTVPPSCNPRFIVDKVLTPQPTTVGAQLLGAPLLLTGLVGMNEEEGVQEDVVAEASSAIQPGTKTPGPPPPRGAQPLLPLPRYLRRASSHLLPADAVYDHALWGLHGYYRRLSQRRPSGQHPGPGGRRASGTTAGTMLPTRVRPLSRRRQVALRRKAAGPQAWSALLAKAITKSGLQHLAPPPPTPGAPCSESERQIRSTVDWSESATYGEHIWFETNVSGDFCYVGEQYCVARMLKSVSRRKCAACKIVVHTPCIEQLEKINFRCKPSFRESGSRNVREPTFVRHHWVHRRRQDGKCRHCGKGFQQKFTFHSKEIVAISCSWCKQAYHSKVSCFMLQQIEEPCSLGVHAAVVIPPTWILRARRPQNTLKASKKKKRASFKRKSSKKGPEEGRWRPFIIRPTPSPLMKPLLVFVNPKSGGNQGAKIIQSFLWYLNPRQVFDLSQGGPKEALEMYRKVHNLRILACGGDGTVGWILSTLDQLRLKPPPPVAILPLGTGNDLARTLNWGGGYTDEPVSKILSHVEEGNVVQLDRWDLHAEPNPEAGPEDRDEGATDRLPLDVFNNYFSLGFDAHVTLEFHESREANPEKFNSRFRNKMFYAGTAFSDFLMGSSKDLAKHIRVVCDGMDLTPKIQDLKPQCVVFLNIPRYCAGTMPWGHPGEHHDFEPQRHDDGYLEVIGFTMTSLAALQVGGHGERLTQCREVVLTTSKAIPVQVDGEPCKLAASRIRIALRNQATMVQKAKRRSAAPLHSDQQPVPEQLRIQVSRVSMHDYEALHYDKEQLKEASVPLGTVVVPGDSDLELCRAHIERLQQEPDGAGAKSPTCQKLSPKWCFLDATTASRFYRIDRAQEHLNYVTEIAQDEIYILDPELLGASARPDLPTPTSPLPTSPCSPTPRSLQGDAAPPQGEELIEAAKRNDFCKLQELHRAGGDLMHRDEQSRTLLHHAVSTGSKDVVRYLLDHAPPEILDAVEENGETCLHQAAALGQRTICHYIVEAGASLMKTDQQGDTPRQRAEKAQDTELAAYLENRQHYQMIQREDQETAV
Chain of Diacylglycerol kinase alpha (P23743 whole entry): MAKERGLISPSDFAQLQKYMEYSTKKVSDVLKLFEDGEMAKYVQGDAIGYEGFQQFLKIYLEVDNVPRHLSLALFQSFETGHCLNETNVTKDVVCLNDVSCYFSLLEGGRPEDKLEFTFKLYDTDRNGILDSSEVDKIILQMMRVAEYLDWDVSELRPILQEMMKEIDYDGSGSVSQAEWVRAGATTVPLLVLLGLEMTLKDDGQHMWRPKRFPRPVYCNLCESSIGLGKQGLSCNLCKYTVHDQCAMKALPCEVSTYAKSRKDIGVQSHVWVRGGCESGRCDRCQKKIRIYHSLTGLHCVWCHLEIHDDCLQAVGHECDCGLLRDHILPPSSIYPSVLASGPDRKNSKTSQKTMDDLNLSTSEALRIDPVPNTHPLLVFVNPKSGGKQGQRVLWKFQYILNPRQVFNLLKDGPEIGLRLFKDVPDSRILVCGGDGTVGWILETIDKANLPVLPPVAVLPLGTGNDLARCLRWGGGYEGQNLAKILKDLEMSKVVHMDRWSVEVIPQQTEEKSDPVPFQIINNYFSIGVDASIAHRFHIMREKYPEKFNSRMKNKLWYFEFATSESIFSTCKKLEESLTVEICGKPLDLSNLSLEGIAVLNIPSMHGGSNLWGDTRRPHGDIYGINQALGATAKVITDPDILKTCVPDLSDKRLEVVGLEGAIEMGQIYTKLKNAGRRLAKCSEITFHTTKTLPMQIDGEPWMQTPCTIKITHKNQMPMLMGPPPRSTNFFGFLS

IC50 [1]: 76 nM
IC50 [2]: 12 nM
Compound: CCC(c1cccc(S(F)(F)(F)(F)F)c1)N1C[C@H](CC)N(c2nc(=O)n(C)c3ccc(C#N)nc23)C[C@H]1CC (single isomer, unassigned) [US20250223301, Compound 55]
